Experimental data: US20190040106A1, “USE OF HUMAN DERIVED IMMUNOSUPPRESSIVE PROTEINS AND PEPTIDES AS MEDICAMENTS” (AIMVION A/S, priority 2015, published 2019)

Experiments:
[1] = tested on: murine model of collagen-induced arthritis; assay: Collagen-induced arthritis model (CIA model), Example 9; type: in vivo, female DBA/1J mice; parameters: key to terminal individual paw score, Front right, group mean / terminal individual paw score, Front left, group mean / terminal individual paw score, Rear right, group mean / terminal individual paw score, Rear left, group mean: paw score 0 = no arthritis to 4 = severe arthritis of entire paw; key to Arthritic Index (AI), group mean: sum of four paw scores, each 0 (no arthritis) to 4 (severe); max 16; settings: for Arthritic Index (AI), group mean: peptide 4 μg/mouse, methotrexate 3 mg/kg, subcutaneous
Experimental: The CIA model is the “standard” animal model for evaluation of anti-arthritic activity based on immunization with bovine collagen to develop antibodies against bone and cartilage.
The aim was to determine anti-arthritic dosing paradigm in a murine model of collagen-induced arthritis. This study was carried out in female DBA/1J mice. The effect of the Env59 ISU peptides on disease development is compared with a methotrexate MTX (positive control) or saline treated control group.
Day 0: The mice were weighted and injected subcutaneously at the nape of the neck as in the table below (table 3):
(§1) An hour later, the mice were injected subcutaneously at the base of the tail with 50 μl of the collagen/CFA emulsion.
(§2) Mice were scored for signs of arthritis every Monday, Wednesday, and Friday during the next 41 days as follows: • Each paw receives a score • 0=no visible effects of arthritis • 1=edema and/or erythema of 1 digit • 2=edema and/or erythema of 2 digits • 3=edema and/or erythema of more than 2 digits • 4=severe arthritis of entire paw and digits
(§3) The Arthritic Index (AI) was calculated by the addition of individual paw scores.
(§4) Day 42 The mice were weighted and scored for signs of arthritis.

[2] = tested on: murine model of collagen-induced arthritis; assay: Collagen-induced arthritis model (CIA model), study number 2, Example 12; type: in vivo, female DBA/1J mice; parameters: key to Terminal Individual Paw Score, Front right, group mean / Terminal Individual Paw Score, Front left, group mean / Terminal Individual Paw Score, Rear right, group mean / Terminal Individual Paw Score, Rear left, group mean: 0 = no arthritis, 4 = severe arthritis of entire paw; key to Arthritic Index (AI), group mean: sum of four paw scores, each 0 = none to 4 = severe; settings: for Arthritic Index (AI), group mean: peptides 4 μg/mouse, methotrexate 1 mg/kg, subcutaneous
Experimental: The CIA model as described in an Example 9 is the “standard” animal model for evaluation of anti-arthritic activity based on immunization with bovine collagen to develop antibodies against bone and cartilage.
Here we present data on investigating in vivo effect of the HERV-Env59, SG#2, and SG#5 and SG#15 peptides. The aim was to determine anti-arthritic dosing paradigm in a murine model of collagen-induced arthritis. This study was carried out in female DBA/1J mice. The effect of the Env59 ISU peptide, SG#2, SG#5 or SG#15 peptide on disease development is compared with a methotrexate MTX (positive control) or saline treated control group.
Day 0: The mice were weighted and injected subcutaneously at the nape of the neck as in the table below (table 6):
as §1, §2, §3, §4

CN(Cc1cnc2nc(N)nc(N)c2n1)c1ccc(C(=O)N[C@@H](CCC(=O)O)C(=O)O)cc1 [Methotrexate, reference compound]
0: terminal individual paw score, Front left, group mean ([1]; day 42) | terminal individual paw score, Front right, group mean ([1]; day 42) | terminal individual paw score, Rear left, group mean ([1]; day 42) | terminal individual paw score, Rear right, group mean ([1]; day 42) | Arthritic Index (AI), group mean ([1]; study day 21) | Arthritic Index (AI), group mean ([1]; study day 22) | Arthritic Index (AI), group mean ([1]; study day 25) | Arthritic Index (AI), group mean ([1]; study day 27) | Arthritic Index (AI), group mean ([1]; study day 29) | Arthritic Index (AI), group mean ([1]; study day 32) | Arthritic Index (AI), group mean ([1]; study day 34) | Arthritic Index (AI), group mean ([1]; study day 36) | Arthritic Index (AI), group mean ([1]; study day 38) | Arthritic Index (AI), group mean ([1]; study day 41) | Arthritic Index (AI), group mean ([1]; study day 42) | Terminal Individual Paw Score, Front left, group mean ([2]; day 42) | Terminal Individual Paw Score, Front right, group mean ([2]; day 42) | Terminal Individual Paw Score, Rear left, group mean ([2]; day 42) | Terminal Individual Paw Score, Rear right, group mean ([2]; day 42) | Arthritic Index (AI), group mean ([2]; study day 14) | Arthritic Index (AI), group mean ([2]; study day 21) | Arthritic Index (AI), group mean ([2]; study day 25) | Arthritic Index (AI), group mean ([2]; study day 27) | Arthritic Index (AI), group mean ([2]; study day 29) | Arthritic Index (AI), group mean ([2]; study day 32) | Arthritic Index (AI), group mean ([2]; study day 34) | Arthritic Index (AI), group mean ([2]; study day 36) | Arthritic Index (AI), group mean ([2]; study day 39) | Arthritic Index (AI), group mean ([2]; study day 41) | Arthritic Index (AI), group mean ([2]; study day 42)
